Test results taken from ChEMBL document CHEMBL4814073, “Ring-opening of five-membered heterocycles conjugated 4-isopropylresorcinol scaffold-based benzamides as HSP90 inhibitors suppressing tumor growth in vitro and in vivo” (Eur J Med Chem, 2021).
Activity calls are given as the source filed them. The rule behind the calls is not given here.

Experiments:
[1] = Volume of distribution at steady state in Sprague-Dawley rat at 2 mg/kg, iv measured after 1 hrs by LC-MS/MS analysis; format: ADME, organism-based; settings: in vivo, read-out: Vdss
[2] = system: A549; assay: Inhibition of MAPK signaling pathway in human A549 cells at 3 uM incubated upto 24 hrs by immunoblot analysis; format: cell-based; settings: time hrs <=24, TDE = time-dependent effect
[3] = target: hERG (KCNH2) (Homo sapiens, UniProt Q12809); assay: Inhibition of human ERG stably expressed in HEK293 cells at 10 uM measured after 60 mins by [3H]]Astemizole binding assay; format: cell-based; settings: HEK293 cells stably expressing hERG, probe [3H]astemizole
[4] = system: A549; assay: Induction of apoptosis in human A549 cells assessed as increase in PARP cleavage at 0.3 to 3 uM measured after 18 hrs by western blot analysis; format: functional, cell-based; settings: dose 0.3-3 µM
[5] = system: A549; assay: Induction of cell cycle arrest in human A549 cells assessed as decrease in cdc2 expression at Tyr15 at 0.3 uM incubated for 24 hrs by Western blot analysis; format: functional, cell-based
[6] = system: A549; assay: Antitumor activity against human A549 cells xenografted in BALB/c mouse assessed as tumor growth delay at 25 mg/kg, po treated daily relative to control
[7] = system: A549; assay: Induction of cell cycle arrest in human A549 cells assessed as M stage arrest by measuring upregulation of p-MPM-2 expression at 0.3 uM incubated for 24 hrs by Western blot analysis; format: functional, cell-based
[8] = system: A549; assay: Induction of apoptosis in human A549 cells assessed as increase in cleaved caspase 7 protein expression at 0.3 to 3 uM measured after 18 hrs by western blot analysis; format: functional, cell-based; settings: dose 0.3-3 µM
[9] = AUC (0 to t) in Sprague-Dawley rat at 20 mg/kg, po measured after 1 hrs by LC-MS/MS analysis; format: ADME, organism-based; set-up: route oral, time 1 hrs, dose 20 mg/kg; settings: in vivo
[10] = system: A549; assay: Induction of cell cycle arrest in human A549 cells assessed as increases in cdc2 expression at Thr161 at 0.3 uM incubated for 24 hrs by Western blot analysis; format: functional, cell-based
[11] = system: A549; assay: Antitumor activity against human A549 cells xenografted in BALB/c mouse assessed as tumor growth delay at 50 mg/kg, po treated daily relative to control
[12] = target: T1, Cytochrome P450 1A2 (Homo sapiens, UniProt P05177); assay: Inhibition of CYP1A2 in human liver microsomes using phenacetin as substrate by LC-MS/MS analysis; format: ADME
T1 sequence (P05177 whole entry): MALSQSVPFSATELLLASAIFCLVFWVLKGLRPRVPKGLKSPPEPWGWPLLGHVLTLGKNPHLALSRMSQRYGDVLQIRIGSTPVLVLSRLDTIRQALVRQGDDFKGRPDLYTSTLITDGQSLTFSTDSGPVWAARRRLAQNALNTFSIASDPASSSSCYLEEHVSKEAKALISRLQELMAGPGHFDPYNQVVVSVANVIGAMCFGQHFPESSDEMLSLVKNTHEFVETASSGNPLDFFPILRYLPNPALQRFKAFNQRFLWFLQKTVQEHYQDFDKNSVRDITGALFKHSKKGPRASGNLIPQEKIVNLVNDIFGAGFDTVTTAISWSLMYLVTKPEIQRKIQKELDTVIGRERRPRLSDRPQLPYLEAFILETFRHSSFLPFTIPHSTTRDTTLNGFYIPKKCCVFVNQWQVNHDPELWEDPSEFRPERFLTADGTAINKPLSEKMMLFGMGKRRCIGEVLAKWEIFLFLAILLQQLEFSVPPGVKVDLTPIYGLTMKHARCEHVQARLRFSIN

[13] = system: A549; assay: Induction of apoptosis in human A549 cells assessed as upregulation of p53 protein expression at 0.3 uM incubated for 24 hrs by Western blot analysis; format: functional, cell-based

Chain of hERG (KCNH2) (Q12809 whole entry): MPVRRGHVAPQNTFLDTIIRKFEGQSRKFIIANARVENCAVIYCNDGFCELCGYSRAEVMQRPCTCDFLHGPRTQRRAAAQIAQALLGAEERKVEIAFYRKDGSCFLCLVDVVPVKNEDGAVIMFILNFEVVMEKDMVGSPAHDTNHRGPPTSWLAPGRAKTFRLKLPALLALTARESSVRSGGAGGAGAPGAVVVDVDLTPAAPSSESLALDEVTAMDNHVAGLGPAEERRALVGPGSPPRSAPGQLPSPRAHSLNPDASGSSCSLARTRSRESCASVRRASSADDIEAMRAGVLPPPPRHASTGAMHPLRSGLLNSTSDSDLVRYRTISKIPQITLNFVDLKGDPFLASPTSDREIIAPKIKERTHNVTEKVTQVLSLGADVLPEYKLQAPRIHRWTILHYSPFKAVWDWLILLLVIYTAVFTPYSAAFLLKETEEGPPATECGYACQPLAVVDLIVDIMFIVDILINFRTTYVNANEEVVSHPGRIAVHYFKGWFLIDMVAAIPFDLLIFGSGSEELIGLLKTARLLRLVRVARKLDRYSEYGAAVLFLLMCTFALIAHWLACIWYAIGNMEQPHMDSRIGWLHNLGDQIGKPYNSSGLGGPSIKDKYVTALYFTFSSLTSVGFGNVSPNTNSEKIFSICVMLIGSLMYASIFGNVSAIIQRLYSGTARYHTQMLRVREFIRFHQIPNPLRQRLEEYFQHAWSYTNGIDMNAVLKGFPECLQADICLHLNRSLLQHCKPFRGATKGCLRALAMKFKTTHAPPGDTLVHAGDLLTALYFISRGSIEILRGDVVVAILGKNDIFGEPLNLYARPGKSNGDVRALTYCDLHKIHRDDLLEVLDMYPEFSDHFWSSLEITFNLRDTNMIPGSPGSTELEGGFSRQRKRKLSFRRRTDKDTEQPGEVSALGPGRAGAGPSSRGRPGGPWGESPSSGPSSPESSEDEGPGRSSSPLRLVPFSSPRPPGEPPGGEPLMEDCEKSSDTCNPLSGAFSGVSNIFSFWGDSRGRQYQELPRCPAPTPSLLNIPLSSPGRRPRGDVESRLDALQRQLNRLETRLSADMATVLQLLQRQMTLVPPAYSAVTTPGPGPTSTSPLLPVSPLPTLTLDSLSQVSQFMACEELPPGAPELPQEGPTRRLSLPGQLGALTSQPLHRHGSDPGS

## CCN(C(=O)c1cc(C(C)C)c(O)cc1O)c1cccnc1
[1]
  Vd: 4.59 L/kg
[2]
  inhibition: Tde
[3]
  inhibition at 1 h, 10 µM: -18%
[4]
  Activity: Active
[5]
  Activity: Active
[6]
  Activity: 41%
[7]
  Activity: Active
[8]
  Activity: Active
[9]
  AUCt: 737 ng·h/mL
[10]
  Activity: Active
[11]
  Activity: 72%
[12]
  IC50: > 50 µM
[13]
  Activity: Active
